From patent publication US20030162692A1, “Follicle stimulating hormone stimulated genes and uses thereof” (priority 2000, published 2003)

Test system: Y-1 (ATCC Accession No. CCL 79) cells
Assay: GEM (Gene Expression Microarray) expression profile of treated vs control Y1 cells, Incyte mouse cDNA array
Format: cell-based
Details: 16 hours; for number of common genes upregulated by FSH, 024 & forskolin: Y1 cells, FSH 10^-9 M, 024 1 uM, Forskolin 1 uM
Protocol: A mouse cDNA array from Incyte, Inc. was used to analyze the expression profile of Y-1 (ATCC Accession No. CCL 79) cells. This transcriptional profile analysis led to the identification of the FSH or FSH Mimetic stimulated genes of the invention.
Y1 cells were incubated with Ham's F-10 Nutrient Mixture Media supplemented with glutamine (1%), G418 geneyticin (80 ug/ml), penicillin-streptomycin (1%), fetal horse serum (15%), and fetal bovine serum (2.5%) and grown to confluency. Confluent cells were then exposed to FSH at 10^-9 M (See Table 1) or FSH Mimetic 024 at 1 uM (see Table 3), Forskolin at 1 uM (See Table 4) and all three agents (i.e., FSH at 10^−9 M, FSH Mimetic 024 at 1 uM and Forskolin at 1 uM—See Table 2) for 16 hours. Total RNA was isolated from control or treated cells with ULTRASPEC™ RNA from Biotech Laboratories, Inc. All media and supplements were obtained from Gibco BRL Life Technologies.
The GEM (Gene Expression Microarray) technology uses the following steps to discover differences in gene expression between two messenger RNA (mRNA) samples. Small samples of cDNA were deposited on a glass surface and bonded to the glass. Subsequently, large portions from one half of the DNA's double strands were removed in order to activate the individual elements of the array, preparing them to react and bind to their uniquely matched DNA counterparts in the cells being tested.
Two mRNA samples were prepared and color labeled, since the GEM technology uses a color coding technique to discover the differences in gene expression between two mRNA samples. […]
The two fluorescent probe samples were simultaneously applied to a single microarray, where they competitively react with the arrayed cDNA molecules. […] The intensity of the fluorescence at each array element is proportional to the expression level of that gene in the sample. […] The ratio of the two fluorescent intensities provided a quantitative measurement of the relative gene expression level in the two cell samples. […]

Compound	number of genes regulated in Y1 cells (FSH at 10^-9 M)	number of common genes upregulated by FSH, 024 & forskolin
Follicle Stimulating Hormone [FSH]	FSH regulats 189 genes in Y1 cells	64 common genes upregulated by FSH, 024 & forskolin
C=C[C@@]1(C)CC(=O)[C@]2(O)[C@@]3(C)[C@@H](O)CCC(C)(C)[C@@H]3[C@H](O)[C@H](OC(C)=O)[C@@]2(C)O1 [Forskolin, reference compound]	–	64 common genes upregulated by FSH, 024 & forskolin
